Tests used:
[1] = biological target: Steroidogenic factor 1 (Homo sapiens) (UniProt Q13285); test: Selectivity interaction (Reporter gene assay) EUB0000571a NR5A1; parameters: recommended concentration 1 uM
[2] = biological target: T1, Alpha trans-inducing protein (Human alphaherpesvirus 1) (UniProt A0A5J6DW59); test: Selectivity interaction (Reporter gene assay) EUB0000571a UL48; parameters: recommended concentration 1 uM
[3] = biological target: T2, Nuclear receptor subfamily 2 group C member 1 (Homo sapiens) (UniProt P13056); test: Selectivity interaction (Reporter gene assay) EUB0000571a NR2C1; parameters: recommended concentration 1 uM
T2 sequence (whole entry): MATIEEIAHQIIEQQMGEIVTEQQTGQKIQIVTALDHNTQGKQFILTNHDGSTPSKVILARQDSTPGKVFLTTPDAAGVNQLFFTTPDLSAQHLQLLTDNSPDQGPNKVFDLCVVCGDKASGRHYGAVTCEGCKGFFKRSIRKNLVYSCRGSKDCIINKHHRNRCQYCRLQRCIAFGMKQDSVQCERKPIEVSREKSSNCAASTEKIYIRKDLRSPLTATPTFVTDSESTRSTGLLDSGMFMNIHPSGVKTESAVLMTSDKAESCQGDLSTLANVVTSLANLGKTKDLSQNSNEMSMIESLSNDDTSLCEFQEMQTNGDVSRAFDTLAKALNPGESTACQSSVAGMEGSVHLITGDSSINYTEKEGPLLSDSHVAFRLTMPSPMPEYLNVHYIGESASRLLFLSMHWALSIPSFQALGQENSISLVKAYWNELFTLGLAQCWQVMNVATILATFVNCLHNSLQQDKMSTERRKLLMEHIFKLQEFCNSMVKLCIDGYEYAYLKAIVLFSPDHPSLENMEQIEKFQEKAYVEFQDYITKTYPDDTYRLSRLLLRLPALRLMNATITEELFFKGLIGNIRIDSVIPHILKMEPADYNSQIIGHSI

[4] = biological target: Nuclear receptor subfamily 4immunitygroup A member 1 (Homo sapiens) (UniProt P22736); test: Selectivity interaction (Reporter gene assay) EUB0000571a NR4A1; parameters: recommended concentration 1 uM
Sequence of Nuclear receptor subfamily 4immunitygroup A member 1 (Homo sapiens) (P22736 whole entry): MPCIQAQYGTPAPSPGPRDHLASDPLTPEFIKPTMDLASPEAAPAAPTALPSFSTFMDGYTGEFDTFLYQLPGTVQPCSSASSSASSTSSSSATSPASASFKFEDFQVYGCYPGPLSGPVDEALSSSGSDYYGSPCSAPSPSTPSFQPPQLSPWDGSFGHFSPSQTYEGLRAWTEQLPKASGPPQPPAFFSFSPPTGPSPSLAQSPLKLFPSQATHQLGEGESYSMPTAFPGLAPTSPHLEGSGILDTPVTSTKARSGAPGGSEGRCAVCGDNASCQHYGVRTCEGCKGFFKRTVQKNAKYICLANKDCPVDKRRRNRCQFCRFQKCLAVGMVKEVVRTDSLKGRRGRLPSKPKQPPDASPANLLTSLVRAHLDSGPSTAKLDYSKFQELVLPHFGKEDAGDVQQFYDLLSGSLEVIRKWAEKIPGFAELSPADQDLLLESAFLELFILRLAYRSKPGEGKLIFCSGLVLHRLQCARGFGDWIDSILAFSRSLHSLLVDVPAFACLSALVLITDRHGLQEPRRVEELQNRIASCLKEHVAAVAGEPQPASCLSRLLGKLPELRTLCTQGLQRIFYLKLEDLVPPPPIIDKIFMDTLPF

[5] = biological target: T3, Hepatocyte nuclear factor 4-alpha (Homo sapiens) (UniProt P41235); test: Selectivity interaction (Reporter gene assay) EUB0000571a HNF4A; parameters: recommended concentration 1 uM
T3 sequence (whole entry): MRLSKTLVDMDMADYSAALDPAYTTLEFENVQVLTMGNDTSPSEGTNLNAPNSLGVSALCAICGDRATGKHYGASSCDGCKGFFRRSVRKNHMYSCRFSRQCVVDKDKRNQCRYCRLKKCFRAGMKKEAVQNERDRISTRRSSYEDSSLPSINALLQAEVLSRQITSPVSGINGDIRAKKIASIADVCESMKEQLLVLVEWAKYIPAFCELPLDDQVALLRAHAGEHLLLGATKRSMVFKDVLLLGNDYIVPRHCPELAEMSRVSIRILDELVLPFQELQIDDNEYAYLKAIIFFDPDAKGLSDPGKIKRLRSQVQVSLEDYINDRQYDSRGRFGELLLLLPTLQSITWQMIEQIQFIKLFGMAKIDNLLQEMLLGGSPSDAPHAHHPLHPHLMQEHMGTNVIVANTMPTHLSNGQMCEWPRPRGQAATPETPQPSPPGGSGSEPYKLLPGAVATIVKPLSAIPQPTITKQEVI

[6] = biological target: Nuclear receptor subfamily 2 group E member 1 (Homo sapiens) (UniProt Q9Y466); test: Selectivity interaction (Reporter gene assay) EUB0000571a NR2E1; parameters: recommended concentration 1 uM
Sequence of Nuclear receptor subfamily 2 group E member 1 (Homo sapiens) (Q9Y466 whole entry): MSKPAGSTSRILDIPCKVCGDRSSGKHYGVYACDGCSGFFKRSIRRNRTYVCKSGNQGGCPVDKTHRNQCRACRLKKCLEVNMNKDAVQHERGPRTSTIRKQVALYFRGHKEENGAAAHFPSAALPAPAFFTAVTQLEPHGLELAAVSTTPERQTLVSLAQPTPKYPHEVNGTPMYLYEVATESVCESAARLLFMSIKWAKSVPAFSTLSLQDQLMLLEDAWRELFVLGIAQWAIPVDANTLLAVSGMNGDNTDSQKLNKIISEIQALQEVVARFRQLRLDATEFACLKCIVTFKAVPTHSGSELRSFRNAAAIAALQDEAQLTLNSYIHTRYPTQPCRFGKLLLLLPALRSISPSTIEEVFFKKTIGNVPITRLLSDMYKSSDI

[7] = biological target: T4, Retinoic acid receptor RXR-alpha (Homo sapiens) (UniProt P19793); test: Selectivity interaction (Reporter gene assay) EUB0000571a RXRA; parameters: recommended concentration 1 uM; details: reference bexarotene 1 uM, Selectivity number of off-targets 0.0, Selectivity number of targets 1.0, Source Knowledge inhouse
T4 sequence (whole entry): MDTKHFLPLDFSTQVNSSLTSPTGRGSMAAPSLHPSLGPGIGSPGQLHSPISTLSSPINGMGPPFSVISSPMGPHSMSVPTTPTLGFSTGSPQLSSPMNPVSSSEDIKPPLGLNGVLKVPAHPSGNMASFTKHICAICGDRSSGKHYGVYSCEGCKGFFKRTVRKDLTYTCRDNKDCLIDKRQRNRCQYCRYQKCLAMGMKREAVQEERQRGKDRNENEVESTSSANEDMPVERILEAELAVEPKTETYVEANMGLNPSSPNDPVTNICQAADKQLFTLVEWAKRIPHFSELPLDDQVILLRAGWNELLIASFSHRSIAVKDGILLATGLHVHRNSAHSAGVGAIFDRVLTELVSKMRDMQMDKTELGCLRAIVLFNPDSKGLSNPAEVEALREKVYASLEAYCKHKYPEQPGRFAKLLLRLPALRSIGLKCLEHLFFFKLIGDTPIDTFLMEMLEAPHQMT

[8] = biological target: T4, Retinoic acid receptor RXR-alpha (Homo sapiens); test: Selectivity interaction (Reporter gene assay) EUB0000583a RXRA; parameters: recommended concentration 1 uM; details: reference bexarotene 1 uM, Selectivity number of off-targets 0.0, Selectivity number of targets 1.0, Source Knowledge inhouse
[9] = biological target: Nuclear receptor subfamily 2 group E member 1 (Homo sapiens) (UniProt Q9Y466); test: Selectivity interaction (Reporter gene assay) EUB0000583a NR2E1; parameters: recommended concentration 1 uM
[10] = biological target: T1, Alpha trans-inducing protein (Human alphaherpesvirus 1); test: Selectivity interaction (Reporter gene assay) EUB0000583a UL48; parameters: recommended concentration 1 uM
[11] = biological target: Steroidogenic factor 1 (Homo sapiens) (UniProt Q13285); test: Selectivity interaction (Reporter gene assay) EUB0000583a NR5A1; parameters: recommended concentration 1 uM
[12] = biological target: Nuclear receptor subfamily 4immunitygroup A member 1 (Homo sapiens) (UniProt P22736); test: Selectivity interaction (Reporter gene assay) EUB0000583a NR4A1; parameters: recommended concentration 1 uM
[13] = biological target: T2, Nuclear receptor subfamily 2 group C member 1 (Homo sapiens); test: Selectivity interaction (Reporter gene assay) EUB0000583a NR2C1; parameters: recommended concentration 1 uM
[14] = biological target: T3, Hepatocyte nuclear factor 4-alpha (Homo sapiens); test: Selectivity interaction (Reporter gene assay) EUB0000583a HNF4A; parameters: recommended concentration 1 uM
[15] = biological target: Nuclear receptor subfamily 4immunitygroup A member 1 (Homo sapiens) (UniProt P22736); test: Selectivity interaction (Reporter gene assay) EUB0000573a NR4A1; parameters: recommended concentration 1 uM
[16] = biological target: T1, Alpha trans-inducing protein (Human alphaherpesvirus 1); test: Selectivity interaction (Reporter gene assay) EUB0000573a UL48; parameters: recommended concentration 1 uM
[17] = biological target: T3, Hepatocyte nuclear factor 4-alpha (Homo sapiens); test: Selectivity interaction (Reporter gene assay) EUB0000573a HNF4A; parameters: recommended concentration 1 uM
[18] = biological target: T4, Retinoic acid receptor RXR-alpha (Homo sapiens); test: Selectivity interaction (Reporter gene assay) EUB0000573a RXRA; parameters: recommended concentration 1 uM; details: reference bexarotene 1 uM, Selectivity number of off-targets 0.0, Selectivity number of targets 1.0, Source Knowledge inhouse
[19] = biological target: Nuclear receptor subfamily 2 group E member 1 (Homo sapiens) (UniProt Q9Y466); test: Selectivity interaction (Reporter gene assay) EUB0000573a NR2E1; parameters: recommended concentration 1 uM
[20] = biological target: Steroidogenic factor 1 (Homo sapiens) (UniProt Q13285); test: Selectivity interaction (Reporter gene assay) EUB0000573a NR5A1; parameters: recommended concentration 1 uM
[21] = biological target: T2, Nuclear receptor subfamily 2 group C member 1 (Homo sapiens); test: Selectivity interaction (Reporter gene assay) EUB0000573a NR2C1; parameters: recommended concentration 1 uM
[22] = biological target: T3, Hepatocyte nuclear factor 4-alpha (Homo sapiens); test: Selectivity interaction (Reporter gene assay) EUB0000572aCl HNF4A; parameters: recommended concentration 3 uM
[23] = biological target: T4, Retinoic acid receptor RXR-alpha (Homo sapiens); test: Selectivity interaction (Reporter gene assay) EUB0000572aCl RXRA; parameters: recommended concentration 3 uM; details: reference bexarotene 1 uM, Selectivity number of off-targets 0.0, Selectivity number of targets 1.0, Source Knowledge inhouse
[24] = biological target: Nuclear receptor subfamily 2 group E member 1 (Homo sapiens) (UniProt Q9Y466); test: Selectivity interaction (Reporter gene assay) EUB0000572aCl NR2E1; parameters: recommended concentration 3 uM; details: screened at recom. conc., Selectivity number of off-targets 2.0, Selectivity number of targets 5.0, Source Knowledge inhouse
[25] = biological target: Nuclear receptor subfamily 4immunitygroup A member 1 (Homo sapiens) (UniProt P22736); test: Selectivity interaction (Reporter gene assay) EUB0000572aCl NR4A1; parameters: recommended concentration 3 uM
[26] = biological target: T1, Alpha trans-inducing protein (Human alphaherpesvirus 1); test: Selectivity interaction (Reporter gene assay) EUB0000572aCl UL48; parameters: recommended concentration 3 uM
[27] = biological target: T2, Nuclear receptor subfamily 2 group C member 1 (Homo sapiens); test: Selectivity interaction (Reporter gene assay) EUB0000572aCl NR2C1; parameters: recommended concentration 3 uM; details: screened at recom. conc., Selectivity number of off-targets 2.0, Selectivity number of targets 5.0, Source Knowledge inhouse
[28] = biological target: Steroidogenic factor 1 (Homo sapiens) (UniProt Q13285); test: Selectivity interaction (Reporter gene assay) EUB0000572aCl NR5A1; parameters: recommended concentration 3 uM

T1 sequence (A0A5J6DW59 as listed by the source): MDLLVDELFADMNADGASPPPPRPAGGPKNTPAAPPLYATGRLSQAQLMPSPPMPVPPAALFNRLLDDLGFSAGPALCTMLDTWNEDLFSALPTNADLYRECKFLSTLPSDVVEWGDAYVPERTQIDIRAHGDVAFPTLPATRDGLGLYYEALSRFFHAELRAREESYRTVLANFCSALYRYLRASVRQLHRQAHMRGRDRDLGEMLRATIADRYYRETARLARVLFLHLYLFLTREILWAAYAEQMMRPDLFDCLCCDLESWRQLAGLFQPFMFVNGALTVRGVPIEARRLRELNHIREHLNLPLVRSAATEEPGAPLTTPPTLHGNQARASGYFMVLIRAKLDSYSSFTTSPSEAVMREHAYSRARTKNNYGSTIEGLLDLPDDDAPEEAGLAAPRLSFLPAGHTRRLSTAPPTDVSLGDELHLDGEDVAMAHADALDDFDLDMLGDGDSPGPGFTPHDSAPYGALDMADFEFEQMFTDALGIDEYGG
Sequence of Steroidogenic factor 1 (Homo sapiens) (Q13285 whole entry): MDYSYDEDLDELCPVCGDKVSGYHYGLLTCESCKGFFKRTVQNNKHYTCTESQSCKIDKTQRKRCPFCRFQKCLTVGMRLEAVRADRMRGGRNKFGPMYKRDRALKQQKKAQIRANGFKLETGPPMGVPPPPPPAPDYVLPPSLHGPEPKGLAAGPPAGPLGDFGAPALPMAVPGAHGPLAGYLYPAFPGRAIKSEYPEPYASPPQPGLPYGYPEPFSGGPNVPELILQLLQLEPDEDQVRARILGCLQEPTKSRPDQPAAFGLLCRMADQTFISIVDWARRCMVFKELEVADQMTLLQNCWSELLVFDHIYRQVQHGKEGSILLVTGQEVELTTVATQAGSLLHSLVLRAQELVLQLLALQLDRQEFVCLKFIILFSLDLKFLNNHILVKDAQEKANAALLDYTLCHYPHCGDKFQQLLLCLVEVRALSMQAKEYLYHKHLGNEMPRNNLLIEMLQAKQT

How did the Fold activation [1] turn out when COC(=O)C(Cc1ccc(OCCn2c(=O)sc3cc(C(=O)c4ccccc4)ccc32)cc1)C(=O)OC was run?
The Fold activation was 1.22.

What about the P-value [2] of the same molecule?
Its P-value is 0.0005.

What about the Fold activation [3] of the same molecule?
The Fold activation was 1.38.

What about the Remaining activity [4] of the same molecule?
Its Remaining activity is 0.966.

What about the Fold activation [5] of the same molecule?
The Fold activation was 1.06.

And the Remaining activity [6]?
The Remaining activity was 0.849.

What about the Relative activation [7] of the same molecule?
The Relative activation was 0.67%.

With C=C1/C(=C\C=C2/CCC[C@]3(C)[C@@H]([C@H](C)/C=C/[C@H](C)C(C)C)CC[C@@H]23)C[C@@H](O)C[C@@H]1O as the molecule, how does the Relative activation [8] read?
The Relative activation was 0.635%.

What about the Remaining activity [9] of the same molecule?
Its Remaining activity is 0.883.

And the P-value [10]?
The P-value was 0.000557.

What about the Fold activation [11] of the same molecule?
The Fold activation was 1.08.

And the Remaining activity [12]?
The Remaining activity was 0.837.

And the Fold activation [13]?
Its Fold activation is 1.19.

What about the Remaining activity [14] of the same molecule?
The Remaining activity was 0.993.

CC(C)OC(=O)C1=CN(C(=O)c2ccc(F)c(F)c2)CC(C)(C)c2c1[nH]c1ccccc21 was tested. Which Fold activation [15] did it give?
The Fold activation was 1.03.

What about the P-value [16] of the same molecule?
Its P-value is 1.36e-05.

What about the Fold activation [17] of the same molecule?
The Fold activation was 1.02.

And the Relative activation [18]?
Its Relative activation is 0.671%.

And the Fold activation [19]?
The Fold activation was 1.46.

And the Fold activation [20]?
The Fold activation was 1.12.

What about the Fold activation [21] of the same molecule?
The Fold activation was 1.3.

For O=C(O)Cc1cccc(OCCCN(Cc2cccc(C(F)(F)F)c2Cl)CC(c2ccccc2)c2ccccc2)c1, which Fold activation [22] is on record?
Its Fold activation is 1.18.

And the Relative activation [23]?
Its Relative activation is 0.674%.

What about the Fold activation [24] of the same molecule?
The Fold activation was 1.82.

And the Fold activation [25]?
The Fold activation was 1.4.

What about the P-value [26] of the same molecule?
Its P-value is 2.13e-05.

What about the Fold activation [27] of the same molecule?
The Fold activation was 1.98.

What about the Fold activation [28] of the same molecule?
Its Fold activation is 1.13.
